Measured values as given in ChEMBL document CHEMBL3526086, “Identification of the oxidative and conjugative enzymes involved in the biotransformation of brivanib” (Drug Metab Dispos, 2012).
Values belong to the molecule of their own block, whether it stands above or below them.

Assays:
Liver cytosol [1] = assay: Drug level in human liver cytosol treated with 2 uM [14C](R)-1-(4-(4-fluoro-2-(hydroxymethyl)-1H-indol-5-yloxy)-5-methylpyrrolo[1,2-f][1,2,4]triazin-6-yloxy)propan-2-ol for 60 mins by LC/MS analysis; assay type: ADME, tissue-based
Liver cytosol [2] = assay: Drug level in human liver cytosol treated with 2 uM [14C](R)-1-(4-(4-fluoro-2-(hydroxymethyl)-1H-indol-5-yloxy)-5-methylpyrrolo[1,2-f][1,2,4]triazin-6-yloxy)propan-2-ol for 60 mins by LC/MS analysis in presence of NADPH; assay type: ADME, tissue-based
Liver microsome [3] = assay: Drug level in human liver microsomes assessed as compound formation treated with 2 uM [14C]brivanib alaninate for 60 mins by LC/MS analysis in presence of NADPH; assay type: ADME; details: 1 h
Liver cytosol [4] = assay: Drug level in human liver cytosol treated with 2 uM [14C](R)-4-fluoro-5-(6-(2-hydroxypropoxy)-5-methylpyrrolo[1,2-f][1,2,4]triazin-4-yloxy)-1H-indole-2-carboxylic acid for 60 mins by LC/MS analysis in presence of PAPS; assay type: ADME, tissue-based
Liver cytosol [5] = assay: Drug level in human liver cytosol treated with 2 uM [14C](R)-1-(4-(4-fluoro-2-(hydroxymethyl)-1H-indol-5-yloxy)-5-methylpyrrolo[1,2-f][1,2,4]triazin-6-yloxy)propan-2-ol for 60 mins by LC/MS analysis in presence of PAPS; assay type: ADME, tissue-based
Liver microsome [6] = assay: Drug level in human liver microsomes treated with 2 uM [14C](R)-1-(4-(4-fluoro-2-methyl-1H-indol-5-yloxy)-5-methylpyrrolo[1,2-f][1,2,4]triazin-6-yloxy)propane-2-sulfonic acid for 60 mins by LC/MS analysis in presence of NADPH; assay type: ADME
Liver cytosol [7] = assay: Drug metabolism in human liver cytosol assessed as (R)-4-fluoro-5-(5-methyl-6-(2-sulfopropoxy)pyrrolo[1,2-f][1,2,4]triazin-4-yloxy)-1H-indole-2-carboxylic acid formation at 2 uM for 60 mins by LC/MS analysis in presence of PAPS; assay type: ADME
Liver cytosol [8] = assay: Drug metabolism in human liver cytosol assessed as sulfate conjugate formation at 2 uM for 60 mins in absence of PAPS by LC/MS analysis; assay type: ADME, tissue-based; details: 1 h
Liver microsome [9] = assay: Drug metabolism in human liver microsomes assessed as compound oxidation at 2 uM for 60 mins by LC/MS analysis in absence of NADPH; assay type: ADME; details: 1 h
Liver microsome [10] = assay: Drug metabolism in human liver microsomes assessed as (R)-4-fluoro-5-(5-methyl-6-(2-sulfopropoxy)pyrrolo[1,2-f][1,2,4]triazin-4-yloxy)-1H-indole-2-carboxylic acid at 2 uM for 60 mins by LC/MS analysis in presence of NADPH; assay type: ADME
Liver microsome [11] = assay: Drug metabolism in human liver microsomes assessed as (R)-1-(4-(4-fluoro-2-(hydroxymethyl)-1H-indol-5-yloxy)-5-methylpyrrolo[1,2-f][1,2,4]triazin-6-yloxy)propane-2-sulfonic acid at 2 uM for 60 mins by LC/MS analysis in presence of NADPH; assay type: ADME
[12] = substrate: Cc1cc2c(F)c(Oc3ncnn4cc(OC[C@@H](C)O)c(C)c34)ccc2[nH]1; assay: Activity of human CYP1A2 assessed as enzyme-mediated (R)-1-(4-(4-fluoro-2-(hydroxymethyl)-1H-indol-5-yloxy)-5-methylpyrrolo[1,2-f][1,2,4]triazin-6-yloxy)propan-2-ol formation in presence of NADPH; assay type: ADME

Molecule: Cc1c(OC[C@@H](C)OS(=O)(=O)O)cn2ncnc(Oc3ccc4[nH]c(CO)cc4c3F)c12
- Drug metabolism (Liver cytosol [5]): metabolite_detected
- Drug metabolism (Liver microsome [6]): metabolite_detected

Molecule: Cc1cc2c(F)c(Oc3n[14cH]nn4cc(OC[C@@H](C)OS(=O)(=O)O)c(C)c34)ccc2[nH]1
- Drug metabolism (Liver microsome [9]): metabolite_not_detected
- Drug metabolism (Liver microsome [10]): metabolite_detected
- Drug metabolism (Liver microsome [11]): metabolite_detected

B1: Cytochrome P450 1A2 (Homo sapiens) (protein)
chain: MALSQSVPFSATELLLASAIFCLVFWVLKGLRPRVPKGLKSPPEPWGWPLLGHVLTLGKNPHLALSRMSQRYGDVLQIRIGSTPVLVLSRLDTIRQALVRQGDDFKGRPDLYTSTLITDGQSLTFSTDSGPVWAARRRLAQNALNTFSIASDPASSSSCYLEEHVSKEAKALISRLQELMAGPGHFDPYNQVVVSVANVIGAMCFGQHFPESSDEMLSLVKNTHEFVETASSGNPLDFFPILRYLPNPALQRFKAFNQRFLWFLQKTVQEHYQDFDKNSVRDITGALFKHSKKGPRASGNLIPQEKIVNLVNDIFGAGFDTVTTAISWSLMYLVTKPEIQRKIQKELDTVIGRERRPRLSDRPQLPYLEAFILETFRHSSFLPFTIPHSTTRDTTLNGFYIPKKCCVFVNQWQVNHDPELWEDPSEFRPERFLTADGTAINKPLSEKMMLFGMGKRRCIGEVLAKWEIFLFLAILLQQLEFSVPPGVKVDLTPIYGLTMKHARCEHVQARLRFSIN
- Km [12]: 45 µM
- Vmax [12]: 1.39e-06 µmol/min

The remaining lines, values ahead:

- Drug metabolism (Liver cytosol [1]): metabolite_detected
- Drug metabolism (Liver cytosol [2]): metabolite_detected
- Drug metabolism (Liver microsome [3]): metabolite_detected
Molecule: Cc1c(OC[C@@H](C)O)cn2ncnc(Oc3ccc4[nH]c(C(=O)O)cc4c3F)c12

- Drug metabolism (Liver cytosol [4]): metabolite_detected
- Drug metabolism (Liver cytosol [5]): metabolite_detected
- Drug metabolism (Liver microsome [6]): metabolite_detected
Molecule: Cc1c(OC[C@@H](C)OS(=O)(=O)O)cn2ncnc(Oc3ccc4[nH]c(C(=O)O)cc4c3F)c12

- Drug metabolism (Liver cytosol [7]): metabolite_detected
- Drug metabolism (Liver cytosol [8]): metabolite_not_detected
Molecule: Cc1c(OC[C@@H](C)O)cn2n[14cH]nc(Oc3ccc4[nH]c(C(=O)O)cc4c3F)c12

- Drug metabolism (Liver microsome [3]): metabolite_detected
Molecule: CC(=O)COc1cn2ncnc(Oc3ccc4[nH]c(C)cc4c3F)c2c1C
